# Laboratory results as given in patent US8513272B2, “Forms of a fused pyrrolocarbazole compound” (Cephalon, Inc., priority 2008, dated 2013).
# Assay: Solubility of various forms of Compound I in water and pH 1, pH 2 (HCl/KCl) buffers at 25° C., HPLC analysis
# Assay type: physicochemical
# Conditions: stirring 300 rpm, saturated solution; for Solubility, pH 1 Buffer: pH 1 HCl/KCl buffer; for Solubility, pH 2 Buffer: pH 2 HCl/KCl buffer
# Description: Solubility of Various Forms of Compound I in Water and pH1, pH2 Buffers
# Solubility was measured by adding 25 mg of the various forms of Compound I or an amount adequate to maintain a saturated solution in water and pH 1, pH 2 (HCl/KCl buffers). Temperature of 25° C. and a stirring rate of 300 rpm were maintained by using a HEL Crystal Scan unit (HEL, UK). Samples were withdrawn at the times indicated, filtered and analyzed by HPLC for Compound I using the method described below.
# HPLC Method for Measurement of CEP11981 Content of Solubility Samples
# Testing was performed on a calibrated ThermoFinnigan High Performance Liquid Chromatography (HPLC) system designated LC-0410-AD. The system comprises a P4000 pump, AS3000 autosampler, and UV2000 detector. A TCM 2000 temperature control module was used to heat the column. All standard solutions and samples were prepared in Class A glass volumetric flasks and were placed in autosampler vials. Standard weightings were done using a calibrated Mettler analytical balance. The sample preparations were centrifuged using an Eppendorf microcentrifuge. The primary chromatography data was acquired and integrated using ChromQuest software. Microsoft Office Excel 2003 was used for the calculation of results.
# Column: MS C18, 150×4.6 mm ID, 3.5μ Waters, m Xterra packing
# Column Temperature: 30° C.
# Detector: UV/VIS @ 270 nm
# Mobile Phase A: 10 mM Ammonium Acetate (aqueous)
# Mobile Phase B: 10 mM Ammonium Acetate in sample solvent
Structure (SMILES),"Solubility, pH 1 Buffer","Solubility, pH 2 Buffer","Solubility, Water"
"CC(C)Cn1c2ccc(Nc3ncccn3)cc2c2c3c(c4c(c21)CCc1nn(C)cc1-4)C(=O)NC3 [AS, 11-isobutyl-2-methyl-8-(2-pyrimidinylamino)-2,5,6,11,12,13-hexahydro-4H-indazolo[5,4-a]pyrrolo[3,4-c]carbazol-4-one]",20000 mcg/mL,0.04 mcg/mL,<1 µg/mL
"CC(C)Cn1c2ccc(Nc3ncccn3)cc2c2c3c(c4c(c21)CCc1nn(C)cc1-4)C(=O)NC3 [pTSA-A1, 11-isobutyl-2-methyl-8-(2-pyrimidinylamino)-2,5,6,11,12,13-hexahydro-4H-indazolo[5,4-a]pyrrolo[3,4-c]carbazol-4-one]",23 mcg/mL,0.3 mcg/mL,<1 µg/mL
"CC(C)Cn1c2ccc(Nc3ncccn3)cc2c2c3c(c4c(c21)CCc1nn(C)cc1-4)C(=O)NC3 [pTSA-A2, 11-isobutyl-2-methyl-8-(2-pyrimidinylamino)-2,5,6,11,12,13-hexahydro-4H-indazolo[5,4-a]pyrrolo[3,4-c]carbazol-4-one]",11 mcg/mL,5 mcg/mL,20 µg/mL
